Reference: ChEMBL document CHEMBL1136458, “MexAB-OprM specific efflux pump inhibitors in Pseudomonas aeruginosa. Part 2: achieving activity in vivo through the use of alternative scaffolds” (Bioorg Med Chem Lett, 2003)

How the values were obtained:
Pseudomonas aeruginosa [1] = assay: Minimum Potentiation Concentration of EPI required to achieve an 8-fold reduction in antibiotic MIC of AZT against MexAB-OprM pump system in Pseudomonas aeruginosa without horse serum; format: functional
Pseudomonas aeruginosa [2] = assay: Minimum Potentiation Concentration of EPI required to achieve an 8-fold reduction in antibiotic MIC of levofloxacin against MexABOprMover-expressing strain of Pseudomonas aeruginosa; format: functional
Pseudomonas aeruginosa [3] = assay: Minimum Potentiation Concentration of EPI required to achieve an 8-fold reduction in antibiotic MIC of AZT against MexAB-OprM pump system in Pseudomonas aeruginosa with 10% horse serum; format: functional
[4] = Ratio of potentiation of AZT without serum to with serum; format: functional
Albumin = Albumin (Homo sapiens, UniProt P02768); assay: Protein binding affinity for human serum albumin was measured
Pseudomonas aeruginosa [5] = assay: Minimum concentration ([…]) of inhibitor required to reduce (potentiate) the activity of antibacterial drug-LVFX for Pseudomonas aeruginosa PAM1723 by n-fold; format: functional
Mus musculus [6] = assay: In vivo number of survivors on day 1 after administration (7.5 mg/kg) in mice(Pseudomonas aeruginosa PAM1723); format: functional
Mus musculus [7] = assay: In vivo number of survivors on day 7 after administration (15 mg/kg) in mice(Pseudomonas aeruginosa PAM1723); format: functional
Mus musculus [8] = assay: In vivo percent survival on day 7th after administration (7.5 mg/kg) in mice(Pseudomonas aeruginosa PAM1723); format: functional
Mus musculus [9] = assay: In vivo number of survivors on day 7 after administration (7.5 mg/kg) in mice(Pseudomonas aeruginosa PAM1723); format: functional
Mus musculus [10] = assay: In vivo number of survivors on day 0 after administration (7.5 mg/kg) in mice(Pseudomonas aeruginosa PAM1723); format: functional
Mus musculus [11] = assay: In vivo percent survival on day 7th after administration (30 mg/kg) in mice(Pseudomonas aeruginosa PAM1723); format: functional
Mus musculus [12] = assay: In vivo number of survivors on day 4 after administration (7.5 mg/kg) in mice(Pseudomonas aeruginosa PAM1723); format: functional
Mus musculus [13] = assay: In vivo number of survivors on day 1 after administration (15 mg/kg) in mice(Pseudomonas aeruginosa PAM1723); format: functional
Mus musculus [14] = assay: In vivo number of survivors on day 4 after administration (30 mg/kg) in mice(Pseudomonas aeruginosa PAM1723); format: functional
Mus musculus [15] = assay: In vivo number of survivors on day 4 after administration (15 mg/kg) in mice Pseudomonas aeruginosa PAM1723); format: functional
Mus musculus [16] = assay: In vivo percent survival on day 7th after administration (15 mg/kg) in mice(Pseudomonas aeruginosa PAM1723); format: functional
Mus musculus [17] = assay: In vivo number of survivors on day 0 after administration (30 mg/kg) in mice(Pseudomonas aeruginosa PAM1723); format: functional
Mus musculus [18] = assay: In vivo number of survivors on day 7 after administration (30 mg/kg) in mice(Pseudomonas aeruginosa PAM1723); format: functional
Mus musculus [19] = assay: In vivo number of survivors on day 1 after administration (30 mg/kg) in mice(Pseudomonas aeruginosa PAM1723); format: functional
Mus musculus [20] = assay: In vivo number of survivors on day 0 after administration (15 mg/kg) in mice(Pseudomonas aeruginosa PAM1723); format: functional
Mus musculus [21] = assay: In vivo number of survivors on day 7 after administration at the dose of 50 mg/kg along LVFX (7.5 mg/kg) in mice (Pseudomonas aeruginosa PAM1723); format: functional
Mus musculus [22] = assay: In vivo number of survivors on day 1after administration at the dose of 50 mg/kg along LVFX (7.5 mg/kg) in mice (Pseudomonas aeruginosa PAM1723); format: functional
Pseudomonas aeruginosa [23] = assay: In vivo percent survival on day 7th after administration at the dose of 50 mg/kg along LVFX (7.5 mg/kg) in Pseudomonas aeruginosa PAM1723; format: functional
Mus musculus [24] = assay: In vivo number of survivors on day 4 after administration at the dose of 50 mg/kg along LVFX (7.5 mg/kg) in mice (Pseudomonas aeruginosa PAM1723); format: functional
Mus musculus [25] = assay: In vivo number of survivors on day 0 after administration at the dose of 50 mg/kg along LVFX (15 mg/kg) in mice (Pseudomonas aeruginosa PAM1723); format: functional
Mus musculus [26] = assay: In vivo number of survivors on day 0 after administration at the dose of 50 mg/kg along LVFX (7.5 mg/kg) in mice (Pseudomonas aeruginosa PAM1723); format: functional
Pseudomonas aeruginosa [27] = assay: In vivo percent survival on day 7th after administration at the dose of 50 mg/kg along LVFX (15 mg/kg) in Pseudomonas aeruginosa PAM1723; format: functional
Mus musculus [28] = assay: In vivo number of survivors on day 4 after administration at the dose of 50 mg/kg along LVFX (15 mg/kg) in mice (Pseudomonas aeruginosa PAM1723); format: functional
Mus musculus [29] = assay: In vivo number of survivors on day 1after administration at the dose of 50 mg/kg along LVFX (15 mg/kg) in mice (Pseudomonas aeruginosa PAM1723); format: functional
Mus musculus [30] = assay: In vivo number of survivors on day 0 after administration at the dose of 50 mg/kg along LVFX (7.5 mg/kg) along with in mice (Pseudomonas aeruginosa PAM1723); format: functional
Mus musculus [31] = assay: In vivo number of survivors on day 7 after administration at the dose of 50 mg/kg along LVFX(7.5 mg/kg) in mice (Pseudomonas aeruginosa PAM1723); format: functional
Mus musculus [32] = assay: In vivo number of survivors on day 7 after administration at the dose of 50 mg/kg along LVFX (15 mg/kg) in mice (Pseudomonas aeruginosa PAM1723); format: functional

Sequence of Albumin (P02768 whole entry): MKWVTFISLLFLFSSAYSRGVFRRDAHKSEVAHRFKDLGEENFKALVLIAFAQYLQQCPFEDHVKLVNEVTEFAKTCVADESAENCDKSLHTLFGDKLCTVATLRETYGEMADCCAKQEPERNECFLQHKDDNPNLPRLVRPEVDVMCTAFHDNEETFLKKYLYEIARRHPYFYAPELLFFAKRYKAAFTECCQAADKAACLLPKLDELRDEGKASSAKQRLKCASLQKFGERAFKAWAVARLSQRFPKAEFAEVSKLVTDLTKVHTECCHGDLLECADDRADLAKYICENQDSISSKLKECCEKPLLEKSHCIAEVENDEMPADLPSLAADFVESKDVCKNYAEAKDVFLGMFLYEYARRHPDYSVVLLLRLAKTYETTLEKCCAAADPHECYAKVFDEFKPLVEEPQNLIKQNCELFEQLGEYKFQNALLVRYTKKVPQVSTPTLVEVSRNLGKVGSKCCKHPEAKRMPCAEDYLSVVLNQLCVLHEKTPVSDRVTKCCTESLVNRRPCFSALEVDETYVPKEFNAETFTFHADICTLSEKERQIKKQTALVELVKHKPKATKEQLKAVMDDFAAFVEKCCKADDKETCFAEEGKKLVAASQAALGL

SMILES	MPC8 (Pseudomonas aeruginosa [1])	MPC8 (Pseudomonas aeruginosa [2]) [µg/mL]	MPC8 (Pseudomonas aeruginosa [3]) [µg/mL]	Ratio [4]	Binding (Albumin) [%]	Kd (Albumin) [µM]	further results
CC(C)c1csc(/C=C/c2ccn3c(=O)c(C(=O)O)cnc3c2)n1	80 µg/mL	>320	40	0.5			
CCn1cc(-c2nnn[nH]2)c(=O)c2ccc(/C=C/c3nc(C(C)C)cs3)cc21	5 µg/mL	1.25	20	4			
CC(C)c1csc(CCc2ccn3c(=O)c(-c4nnn[nH]4)cnc3c2)n1	10 µg/mL		10	1	81.5	327	MPC8 (Pseudomonas aeruginosa [5]): >80 µg/mL
C[C@H]1COc2c(N3CCN(C)CC3)c(F)cc3c(=O)c(C(=O)O)cn1c23.C[C@H]1COc2c(N3CCN(C)CC3)c(F)cc3c(=O)c(C(=O)O)cn1c23.O [LEVOFLOXACIN]							No. of survivors (Mus musculus [6]): 0; No. of survivors (Mus musculus [7]): 1; Survival (Mus musculus [8]): 0%; No. of survivors (Mus musculus [9]): 0; No. of survivors (Mus musculus [10]): 10; Survival (Mus musculus [11]): 70%; No. of survivors (Mus musculus [12]): 0; No. of survivors (Mus musculus [13]): 1; No. of survivors (Mus musculus [14]): 7; No. of survivors (Mus musculus [15]): 1; Survival (Mus musculus [16]): 10%; No. of survivors (Mus musculus [17]): 10; No. of survivors (Mus musculus [18]): 7; No. of survivors (Mus musculus [19]): 9; No. of survivors (Mus musculus [20]): 10
CC(C)c1csc(COc2cc3c(cc2F)c(=O)c(C(=O)O)cn3C2CC2)n1	10 µg/mL	320	10	1	90.5		
CC(C)c1csc(COc2ccn3c(=O)c(C(=O)O)cnc3c2)n1	40 µg/mL	320	80	2			
CCn1cc(C(=O)O)c(=O)c2ccc(/C=C/c3nc(C(C)C)cs3)cc21	10 µg/mL	>160	10	1			
CC(C)c1csc(CCc2ccn3c(=O)c(C(=O)O)cnc3c2)n1	>40 µg/mL		>40				
CC(C)c1csc(/C=C/c2cccc(NC(=O)Cc3ccccc3C(=O)O)c2)n1	<=0.63 ug ml-1	>60	10	> 16	> 99.9	0.28	
CC(C)c1csc(COc2ccn3c(=O)c(-c4nnn[nH]4)cnc3c2)n1	5 µg/mL	10	5	1	88.4	66.4	No. of survivors (Mus musculus [21]): 4; No. of survivors (Mus musculus [22]): 4; survival at 50 mg/kg (Pseudomonas aeruginosa [23]): 40%; No. of survivors (Mus musculus [24]): 4; No. of survivors (Mus musculus [25]): 10; No. of survivors (Mus musculus [26]): 10; survival at 50 mg/kg (Pseudomonas aeruginosa [27]): 100%
CC(C)c1csc(/C=C/c2ccn3c(=O)c(-c4nnn[nH]4)cnc3c2)n1	2.5 µg/mL	1.25	2.5	1	90.8	22	No. of survivors (Mus musculus [28]): 7; No. of survivors (Mus musculus [29]): 10; No. of survivors (Mus musculus [30]): 10; No. of survivors (Mus musculus [22]): 1; survival at 50 mg/kg (Pseudomonas aeruginosa [23]): 10%; No. of survivors (Mus musculus [31]): 1; No. of survivors (Mus musculus [24]): 1; No. of survivors (Mus musculus [25]): 10; No. of survivors (Mus musculus [32]): 7; survival at 50 mg/kg (Pseudomonas aeruginosa [27]): 70%
